Laboratory results from patent US20060194823A1, “Sulfonamido-macrocycles as Tie2 inhibitors and the salts thereof, a pharmaceutical composition comprising these compounds, the method of preparing and the use thereof” (priority 2004, published 2006).

Biological target: T1, Tie-2-Kinase (Homo sapiens, UniProt Q02763)
T1 construct: made in house
Test: Tie-2-Kinase HTRF-Assay
Type: biochemical
Conditions: either in the Tie2 kinase assay or in the Tie2 autophosphorylation ELISA test; read-out: IC50, inhibit Tie2
Excerpt: Tie-2 phosphorylates tyrosine residues of the artificial substrate polyGAT (biotinylated polyGluAlaTyr). Detection of phosphorylated product is achieved specifically by a trimeric detection complex consisting of the phosphorylated substrate, streptavidin-XLent (SA-XLent) which binds to biotin, and Europium Cryptate-labeled anti-phosphotyrosine antibody PT66 which binds to phosphorylated tyrosine. Excitation of Europium fluorescence with 337 nm light results in emission of long-lived light with 620 nm. In case a trimeric detection complex has formed, part of the energy will be transferred to the SA-XLent fluorophore that itself then emits long-lived light of 665 nm (FRET: fluorescence resonance energy transfer). […] Measurement is performed in a Packard Discovery or BMG Rubystar instrument. A-counts (emission at 665 nm) will be divided by B-counts (emission at 620 nm) and multiplicated with a factor of 10000. The resulting numbers are called the “well ratio” of the sample.
• Enzyme: Tie-2-Kinase, in house, aliquots (12×10 mL) stored at −80° C. • Substrate: PolyGAT labeled with Biotin (1000 μg/mL); ClS Bio; # 61GATBLB; • aliquots stored at −20° C. • ATP: Amersham Pharmacia Biotech Inc. # 27-2056-01; 100 mM; stored at −20° C. • Antibody: PT66-Eu Cryptate; CIS Bio; # 61T66KLB; 30 μg/mL; aliquots stored at −20° C. • SA-XLent; CIS Bio; # 611SAXLB; 1000 μg/mL; aliquots stored at −80° C. • Microplates: 384 Well black, SV, Greiner, # 784076 Solutions: Assay Buffer: • 50 mM HEPES (pH 7.0), 25 mM MgCl2, 5 mM MnCl2, 1 mM DTT, 0.5 mM Na3VO4, 0.01% (v/v) NP40, 1× Complete EDTA free Enzyme Working Solution: • Tie-2 stock solution is diluted 1:250 in assay buffer Substrate Working Solution: • PolyGAT (1000 μg/mL; 36.23 μM) is diluted 1:90.6 to 400 nM or 77.3 ng/well, ATP (100 mM) is diluted 1:5000 to 20.0 μM. Both dilutions in assay buffer. Final assay concentrations: poly-GAT: 200 nM or 5.25 μg/mL, ATP: 10 μM (1×Km each). • Detection solution: 50 mM HEPES (pH 7.0), BSA 0.2%, 0.6 M KF, 200 mM EDTA, PT66-Europium Cryptate 2.5 ng/well, SA-XLent Cis Bio 90 ng/well. Assay Steps All Steps at 20° C. • 1. 0.75 μL of compound solution in 30% (v/v) DMSO • 2. add 7 μL of substrate working solution • 3. add 7 μL of enzyme working solution • 4. incubate 75 min (reaction volume: 14.75 μL) • 5. add 8 μL of detection solution • 6. incubate 180 min or over night at 4° C. (total volume: 22.75 μL) • 7. measure HTRF in Packard Discovery or BMG Rubystar instrument (delay 50 μs, integrated time 400 μs) Final Concentrations (in 14.75 μL Reaction Volume): • Enzyme: unknown • polyGAT (1×Km): 200 nM (77.3 ng) • ATP (1×Km): 10 μM • DMSO: 1.5% (v/v) • Buffer conditions: 50 mM HEPES (pH 7.0), 25 mM MgCl2, 5 mM MnCl2, 1 mM DTT, 0.5 mM NaVO4, 0.01% (v/v) NP40, 1× Complete Controls: • C0: uninhibited reaction (DMSO only) • Ci: inhibited reaction with 20 μM Staurosporine Biological Experiment 3: Proliferation Test

T1 sequence (Q02763 23-1124): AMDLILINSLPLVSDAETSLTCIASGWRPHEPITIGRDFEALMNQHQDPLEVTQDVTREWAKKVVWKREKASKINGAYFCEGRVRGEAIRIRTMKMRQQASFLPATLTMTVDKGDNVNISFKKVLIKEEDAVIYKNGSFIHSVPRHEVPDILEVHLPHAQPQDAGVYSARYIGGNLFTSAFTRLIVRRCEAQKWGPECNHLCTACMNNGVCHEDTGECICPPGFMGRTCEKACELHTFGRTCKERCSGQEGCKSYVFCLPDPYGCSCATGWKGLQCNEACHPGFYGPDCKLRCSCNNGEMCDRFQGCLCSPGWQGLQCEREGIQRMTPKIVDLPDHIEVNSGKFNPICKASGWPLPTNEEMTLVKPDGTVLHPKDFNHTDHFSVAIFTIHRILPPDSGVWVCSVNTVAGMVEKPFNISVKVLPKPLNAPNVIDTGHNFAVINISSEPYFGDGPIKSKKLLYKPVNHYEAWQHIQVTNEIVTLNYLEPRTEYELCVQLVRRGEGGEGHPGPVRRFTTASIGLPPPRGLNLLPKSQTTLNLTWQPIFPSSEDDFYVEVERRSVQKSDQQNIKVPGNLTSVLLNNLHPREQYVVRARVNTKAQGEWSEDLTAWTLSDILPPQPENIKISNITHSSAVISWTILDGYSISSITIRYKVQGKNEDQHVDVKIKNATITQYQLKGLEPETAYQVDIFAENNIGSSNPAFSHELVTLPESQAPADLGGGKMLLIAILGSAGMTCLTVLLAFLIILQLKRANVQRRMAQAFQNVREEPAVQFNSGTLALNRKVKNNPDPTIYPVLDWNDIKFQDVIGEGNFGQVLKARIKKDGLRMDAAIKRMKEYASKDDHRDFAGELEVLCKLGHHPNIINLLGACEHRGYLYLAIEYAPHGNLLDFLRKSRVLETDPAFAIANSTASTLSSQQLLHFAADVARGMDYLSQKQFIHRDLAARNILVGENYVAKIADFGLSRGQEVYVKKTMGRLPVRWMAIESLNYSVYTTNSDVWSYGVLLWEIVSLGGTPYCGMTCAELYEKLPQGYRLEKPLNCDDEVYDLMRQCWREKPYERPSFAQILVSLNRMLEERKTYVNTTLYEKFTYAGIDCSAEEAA

Structure (SMILES)	IC50 [µM]
O=C(COc1ccc(-c2cnc3nc2NCCCNS(=O)(=O)c2cccc(c2)N3)cc1)c1ccccc1 [Example 3, 2-[4-[4,4-dioxo-4λ^6-thia-2,5,9-triaza-1(2,4)-pyrimidina-3(1,3)-benzenacyclo-nonaphan-1^5-yl]phenoxy]-1-phenylethanone]	≤ 1
O=C(Nc1ccccc1)Nc1ccc(-c2cnc3nc2NCCCNS(=O)(=O)c2cccc(c2)N3)cc1 [Example 8, N-[4-[4,4-dioxo-4λ^6-thia-2,5,9-triaza-1(2,4)-pyrimidina-3(1,3)-benzena-cyclononaphan-1^5-yl]phenyl]-N′-phenylurea]	≤ 1
O=C(Nc1ccc(-c2cnc3nc2NCCCNS(=O)(=O)c2cccc(c2)N3)cc1)Nc1cccc(C(F)(F)F)c1 [Example 9, N-[4-[4,4-dioxo-4λ^6-thia-2,5,9-triaza-1(2,4)-pyrimidina-3(1,3)-benzena-cyclononaphan-1^5-yl]phenyl]-N′-[3-(trifluoromethyl)-phenyl]urea]	≤ 1
O=C(Nc1ccc(-c2cnc3nc2NCCCNS(=O)(=O)c2cccc(c2)N3)cc1)Nc1cc(C(F)(F)F)ccc1F [Example 10, N-[4-[4,4-dioxo-4λ^6-thia-2,5,6-triaza-1(2,4)-pyrimidina-3(1,3)-benzena-cyclononaphan-1^5-yl]phenyl]-N′-[2-fluoro-5-(trifluoromethyl)-phenyl]urea]	≤ 1
COc1ccc(S(=O)(=O)Nc2ccc(-c3cnc4nc3NCCCNS(=O)(=O)c3cccc(c3)N4)cc2)cc1 [Example 23, N-[4-[4,4-dioxo-4λ^6-thia-2,5,9-triaza-1(2,4)-pyrimidina-3(1,3)-benzena-cyclononaphan-1^5-yl]phenyl]-4-methoxybenzene-sulfonamide]	≤ 1

Results, then the molecule that gave them:

IC50 [µM]	Structure (SMILES)
≤ 1	O=S1(=O)NCCCNc2nc(ncc2-c2ccc3c(c2)OCO3)Nc2cccc1c2 [Example 1, 1^5-(1,3-benzodioxol-5-yl)-4-thia-2,5,9-triaza-1(2,4) pyrimidina-3(1,3)-benzenacyclonona-phane 4,4-dioxide]
≤ 1	O=C(COc1ccc(-c2cnc3nc2NCCCNS(=O)(=O)c2cccc(c2)N3)cc1)c1ccc(F)cc1 [Example 2, 2-[4-[4,4-dioxo-4λ^6-thia-2,5,9-triaza-1(2,4)-pyrimidina-3(1,3)-benzenacyclo-nonaphan-1^5-yl]phenoxy]-1-(4-fluorophenyl)-ethanone]
